Values joined by “and” are separate entries in the source; they are usually repeats but may differ in a detail not shown here. Equal entries are not always repeated. Where two headings read alike, the source gives them in different places.
How the values were obtained:
NF54^G358S-1 parasites = assay: P. falciparum proliferation assay (72 h, flow cytometry, SYBR Green I/MitoTracker); format: cell-based, Plasmodium falciparum; settings: for FC (IC50) / FC (IC90): NF54G358S-1 compared to NF54WT
Outline: (§1)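 Predominantly ring-stage cultures at 0.3% parasitaemia, 1% haematocrit, in medium with 10% O+ human serum; compound exposure 72 h, DMSO <0.5% (v/v). Live parasites counted by flow cytometry with SYBR Green I and 200 nM MitoTracker Deep Red. IC50/IC90 from linear interpolation of dose-response data.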

[1] = target: T1, PfATP4^WT (membranes from Dd2-Polδ parasites) (Plasmodium falciparum, UniProt A0A143ZZK9); assay: Membrane ATPase assay, ATP4-associated (Na+-dependent) ATPase activity; format: biochemical; settings: for IC50 for inhibition of ATP4-associated ATPase activity, MEAN: Dd2-Polδ membranes, source data of Table 1 (nM there); for PfATP4-associated ATPase activity (% of control): single experiments; for IC50 for ATP4-associated ATPase activity: membranes from Dd2-Polδ, mean ± SEM
T1 sequence (A0A143ZZK9 1-1264): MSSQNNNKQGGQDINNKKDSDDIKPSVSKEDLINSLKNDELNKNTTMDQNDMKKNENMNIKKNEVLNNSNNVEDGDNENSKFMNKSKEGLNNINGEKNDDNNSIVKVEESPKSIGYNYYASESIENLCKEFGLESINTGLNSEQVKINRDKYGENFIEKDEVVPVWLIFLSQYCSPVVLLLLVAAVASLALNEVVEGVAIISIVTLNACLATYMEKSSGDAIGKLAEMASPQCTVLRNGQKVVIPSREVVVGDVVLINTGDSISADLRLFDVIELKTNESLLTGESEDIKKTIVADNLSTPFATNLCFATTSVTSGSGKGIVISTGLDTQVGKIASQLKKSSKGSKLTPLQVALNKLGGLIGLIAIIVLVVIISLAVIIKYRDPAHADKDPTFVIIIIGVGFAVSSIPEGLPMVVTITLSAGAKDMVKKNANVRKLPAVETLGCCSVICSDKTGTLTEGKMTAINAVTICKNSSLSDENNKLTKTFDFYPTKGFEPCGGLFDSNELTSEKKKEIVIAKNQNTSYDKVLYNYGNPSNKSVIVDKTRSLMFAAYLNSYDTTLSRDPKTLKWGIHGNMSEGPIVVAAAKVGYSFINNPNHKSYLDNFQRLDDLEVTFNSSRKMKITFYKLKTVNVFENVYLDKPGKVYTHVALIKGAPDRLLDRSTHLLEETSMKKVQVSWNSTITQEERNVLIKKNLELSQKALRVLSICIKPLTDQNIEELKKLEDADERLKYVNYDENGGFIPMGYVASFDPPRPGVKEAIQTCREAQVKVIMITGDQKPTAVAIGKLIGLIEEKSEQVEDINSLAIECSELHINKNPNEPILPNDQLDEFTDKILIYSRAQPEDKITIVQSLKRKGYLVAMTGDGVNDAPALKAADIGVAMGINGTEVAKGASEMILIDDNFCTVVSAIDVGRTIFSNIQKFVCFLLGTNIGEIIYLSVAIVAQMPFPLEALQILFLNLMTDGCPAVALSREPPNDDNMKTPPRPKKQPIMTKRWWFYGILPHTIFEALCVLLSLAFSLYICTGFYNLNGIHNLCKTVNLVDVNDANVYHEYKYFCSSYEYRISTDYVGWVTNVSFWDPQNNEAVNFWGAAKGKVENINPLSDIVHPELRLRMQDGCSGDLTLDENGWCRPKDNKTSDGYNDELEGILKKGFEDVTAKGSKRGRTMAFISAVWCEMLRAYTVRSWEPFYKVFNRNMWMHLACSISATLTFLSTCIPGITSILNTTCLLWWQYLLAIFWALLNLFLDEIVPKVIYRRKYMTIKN
Procedure: Membranes from isolated P. falciparum or extracellular T. gondii parasites were prepared by lysing parasites in ice-cold deionized water containing a 1:500 dilution of Protease Inhibitor Cocktail Set III (Merck Millipore), then washing the membrane preparation three times in ice-cold deionized water (with protease inhibitors present for the first two washes)[15]. Protein concentrations in the membrane preparations were measured using a Bradford assay. The PiColorLock Gold Phosphate Detection System (Innova Biosciences) was used to measure the production of Pi from hydrolysis of ATP[15]. Membrane preparations were diluted in either a high Na^+ solution (yielding final conditions in the reactions of 150 mM NaCl, 20 mM KCl, 2 mM MgCl2, 50 mM Tris, pH 7.2) or a Na^+-free solution (yielding final conditions of 150 mM choline chloride, 20 mM KCl, 2 mM MgCl2, 50 mM Tris, pH 7.2) to achieve a total protein concentration of 50 μg/mL. […] The reactions were performed at 37 °C, and were initiated by the addition of 1 mM ATP (Na2ATP۰3H2O; MP Biomedicals) and terminated 10 min later by adding 100 μL of reaction mixture (in duplicate) to 25 μL “Gold mix” in a 96-well plate. “Stabiliser” was added 3 min later, and the plates incubated at room temperature in the dark for 60 min before measuring absorbance at 635 nm. Background values (averaged from wells containing all components, but to which ATP was not added until after the membrane was exposed to Gold mix) were subtracted from the data. For each treatment, the ATPase activity associated with the (Na^+-dependent) PfATP4 and TgATP4 proteins was calculated by subtracting data obtained in the low Na^+ condition (containing only the 2 mM Na^+ introduced on addition of 1 mM Na2ATP) from that obtained in the high Na^+ condition.

NF54^WT parasites = assay: microbe, parasite or virus in culture; format: cell-based, Plasmodium falciparum; settings: for FC (IC50) / FC (IC90): reference line
Outline: as §1

[2] = NF54G358S-1, single experiments, source data of Fig. 2 (nM in Supplementary Table 5), read-out: IC50 values
[3] = NF54G358S-1 parasites, individual experiments, read-out: IC90 values
[4] = Plasmodium falciparum, NF54, NF54G358S-1, 10% human serum, read-out: IC50 ± SEM
[5] = Plasmodium falciparum, NF54, NF54G358S-1, 10% human serum, read-out: IC90 ± SEM
[6] = Plasmodium falciparum, NF54, NF54G358S-1, MEAN, source data of Fig. 2, read-out: IC50 values, MEAN
[7] = Plasmodium falciparum, NF54, NF54G358S-1, single experiments, source data of Fig. 2 (nM in Supplementary Table 5), read-out: IC50 values
[8] = Plasmodium falciparum, NF54, NF54G358S-1 parasites, individual experiments, read-out: IC90 values
[9] = Plasmodium falciparum, NF54, NF54G358S-1 parasites, mean of the experiments, read-out: IC90 values, MEAN
[10] = NF54WT parasites, individual experiments, read-out: IC90 values
[11] = NF54WT, single experiments, source data of Fig. 2 (nM in Supplementary Table 5), read-out: IC50 values
[12] = Plasmodium falciparum, NF54, NF54WT parasites, individual experiments, read-out: IC90 values
[13] = Plasmodium falciparum, NF54, NF54WT parasites, mean of the experiments, read-out: IC90 values, MEAN
[14] = Plasmodium falciparum, NF54, NF54WT, MEAN, source data of Fig. 2, read-out: IC50 values, MEAN
[15] = Plasmodium falciparum, NF54, NF54WT, single experiments, source data of Fig. 2 (nM in Supplementary Table 5), read-out: IC50 values

For `C[C@H]1Cc2c([nH]c3cc(Cl)c(F)cc23)[C@@]2(N1)C(=O)Nc1ccc(Cl)cc12` [Cipargamin], the IC50 (NF54^G358S-1 parasites; [2]) was 2030 nM and 1970 nM and 2280 nM, the “FC (IC50)” value (NF54^G358S-1 parasites) was 768.6 fold and the “FC (IC90)” value (NF54^G358S-1 parasites) was 910.8 fold. For the same compound, the IC90 (NF54^G358S-1 parasites; [3]) was 3.46 µM (2×) and 3.39 µM, the IC50 (NF54^G358S-1 parasites; [4]) was 2030 ± 93.9 nM and the IC90 (NF54^G358S-1 parasites; [5]) was 3461 ± 30.7 nM. It also gave an IC50 (NF54^G358S-1 parasites; [6]) of 2030 nM, an IC50 (NF54^G358S-1 parasites; [7]) of 1840 nM and an IC90 (NF54^G358S-1 parasites; [8]) of 3540 nM. The IC90 (NF54^G358S-1 parasites; [9]) was 3460 nM, the “IC50 for inhibition of ATP4-associated ATPase activity, MEAN” value ([1]; MEAN) was 2.51 and the remaining activity at 3.76 pM ([1]; Dd2-Polδ, [Cipargamin] 0.00376 nM, MEAN, read-out: PfATP4-associated ATPase activity (% of control)) was 75.4%. The remaining activity at 11 pM ([1]; Dd2-Polδ, [Cipargamin] 0.011 nM, MEAN, read-out: PfATP4-associated ATPase activity (% of control)) was 75%, the “PfATP4-associated ATPase activity (% of control)” value ([1]; Dd2-Polδ, [Cipargamin] 0.011 nM, 11 pM) was 92.1 % of control and 50.6 % of control and 82.7 % of control and 74.5 % of control and the remaining activity at 34 pM ([1]; Dd2-Polδ, [Cipargamin] 0.034 nM, MEAN, read-out: PfATP4-associated ATPase activity (% of control)) was 76%. The remaining activity at 0.000102 µM ([1]; Dd2-Polδ, [Cipargamin] 0.102 nM, MEAN, read-out: PfATP4-associated ATPase activity (% of control)) was 66.1%, the remaining activity at 0.000305 µM ([1]; Dd2-Polδ, [Cipargamin] 0.305 nM, MEAN, read-out: PfATP4-associated ATPase activity (% of control)) was 60.1% and the “PfATP4-associated ATPase activity (% of control)” value ([1]; Dd2-Polδ, [Cipargamin] 0.305 nM, 0.000305 µM) was 59.8 % of control and 42.8 % of control and 70.9 % of control and 66.9 % of control. It also gave a remaining activity at 0.000914 µM ([1]; Dd2-Polδ, [Cipargamin] 0.914 nM, MEAN, read-out: PfATP4-associated ATPase activity (% of control)) of 32.6%, a remaining activity at 0.002743 µM ([1]; Dd2-Polδ, [Cipargamin] 2.743 nM, MEAN, read-out: PfATP4-associated ATPase activity (% of control)) of 25.1% and a remaining activity at 0.00823 µM ([1]; Dd2-Polδ, [Cipargamin] 8.230 nM, MEAN, read-out: PfATP4-associated ATPase activity (% of control)) of -9.5%. For the same compound, the remaining activity at 0.024691 µM ([1]; Dd2-Polδ, [Cipargamin] 24.691 nM, MEAN, read-out: PfATP4-associated ATPase activity (% of control)) was -14.7%, the remaining activity at 0.074074 µM ([1]; Dd2-Polδ, [Cipargamin] 74.074 nM, MEAN, read-out: PfATP4-associated ATPase activity (% of control)) was -19.7% and the remaining activity at 0.222222 µM ([1]; Dd2-Polδ, [Cipargamin] 222.222 nM, MEAN, read-out: PfATP4-associated ATPase activity (% of control)) was -16.9%. The remaining activity at 0.666667 µM ([1]; Dd2-Polδ, [Cipargamin] 666.667 nM, MEAN, read-out: PfATP4-associated ATPase activity (% of control)) was -29.5%, the remaining activity at 1.25 pM ([1]; Dd2-Polδ, [Cipargamin] […], MEAN, read-out: PfATP4-associated ATPase activity (% of control)) was 85.7% and the “IC50 for ATP4-associated ATPase activity” value [1] was 2.5 ± 0.8 (4) nM. The IC90 (NF54^WT parasites; [10]) was 4.6 nM and 3.5 nM, the “FC (IC50)” value (NF54^WT parasites; NF54WT) was 1.0 fold and the “FC (IC90)” value (NF54^WT parasites; NF54WT) was 1.0 fold. The IC50 (NF54^WT parasites; [11]) was 2.8 nM and 2.5 nM and 2.6 nM, the IC90 (NF54^WT parasites; [12]) was 3.6 nM and the IC90 (NF54^WT parasites; [13]) was 3.8 nM. It also gave an IC50 (NF54^WT parasites; [14]) of 2.64 nM and an IC50 (NF54^WT parasites; [15]) of 2.7 nM.
With `N#Cc1cc(NC(=O)[C@H]2c3ccccc3C(=O)N(CC(F)(F)F)[C@@H]2c2cccnc2)ccc1F` [(+)-SJ733] the IC50 (NF54^G358S-1 parasites; [2]) was 12600 nM and 15300 nM and 15000 nM, the “FC (IC50)” value (NF54^G358S-1 parasites) was 148.8 fold and the “FC (IC90)” value (NF54^G358S-1 parasites) was 155.4 fold. The IC90 (NF54^G358S-1 parasites; [3]) was 25900 nM and 24200 nM and 24300 nM, the IC50 (NF54^G358S-1 parasites; [4]) was 14000 ± 683 nM and the IC90 (NF54^G358S-1 parasites; [5]) was 25400 ± 726 nM. The IC50 (NF54^G358S-1 parasites; [6]) was 14000 nM, the IC50 (NF54^G358S-1 parasites; [7]) was 13000 nM and the IC90 (NF54^G358S-1 parasites; [8]) was 27200 nM. The IC90 (NF54^G358S-1 parasites; [9]) was 25400 nM, the “IC50 for inhibition of ATP4-associated ATPase activity, MEAN” value ([1]; MEAN) was 5.23 and the “IC50 for ATP4-associated ATPase activity” value [1] was 5.2 ± 2.3 (3) nM. For the same compound, the IC90 (NF54^WT parasites; [10]) was 171 nM and 165 nM and 176 nM, the “FC (IC50)” value (NF54^WT parasites; NF54WT) was 1.0 fold and the “FC (IC90)” value (NF54^WT parasites; NF54WT) was 1.0 fold. For the same compound, the IC50 (NF54^WT parasites; [11]) was 89.8 nM and 87.1 nM and 107 nM, the IC90 (NF54^WT parasites; [12]) was 141 nM and the IC90 (NF54^WT parasites; [13]) was 164 nM. The IC50 (NF54^WT parasites; [14]) was 93.8 nM and the IC50 (NF54^WT parasites; [15]) was 91.6 nM.
